Test: xn = mol fraction of the nth substance listed
Conditions: Liquid, Vibrating tube method

CCCCCCC [heptane] + CCO
mass density [kg/m3]
Conditions | x2 = 0 | x2 = 0.125 | x2 = 0.25 | x2 = 0.375 | x2 = 0.5 | x2 = 0.625 | x2 = 0.75 | x2 = 0.875
293.15 K, 100 kPa | 683.9 | 688.1 | 694.5 | 701.9 | 711.2 | 722.6 | 737.9 | 758.9
293.15 K, 5000 kPa | 688.2 | 692.5 | 699 | 706.4 | 715.7 | 727.1 | 742.3 | 763.2
293.15 K, 10000 kPa | 692.5 | 696.8 | 703.3 | 710.9 | 719.9 | 731.4 | 746.6 | 767.4
293.15 K, 15000 kPa | 696.5 | 701 | 707.3 | 714.9 | 724 | 735.4 | 750.7 | 771.4
293.15 K, 20000 kPa | 700.5 | 704.9 | 711.3 | 718.9 | 728 | 739.4 | 754.6 | 775.3
293.15 K, 25000 kPa | 704.1 | 708.5 | 714.9 | 722.4 | 731.6 | 743 | 758.3 | 778.9
293.15 K, 30000 kPa | 707.5 | 712 | 718.4 | 725.9 | 735.1 | 746.5 | 761.7 | 782.3
293.15 K, 35000 kPa | 710.8 | 715.4 | 721.7 | 729.3 | 738.5 | 749.9 | 765.1 | 785.6
293.15 K, 40000 kPa | 714 | 718.4 | 725 | 732.5 | 741.7 | 753.1 | 768.4 | 788.9
293.15 K, 45000 kPa | 716.9 | 721.5 | 728 | 735.5 | 744.9 | 756.2 | 771.4 | 791.9
293.15 K, 50000 kPa | 719.8 | 724.5 | 731.1 | 738.5 | 747.9 | 759.3 | 774.5 | 794.9
293.15 K, 55000 kPa | 722.7 | 727.4 | 733.9 | 741.4 | 750.8 | 762.2 | 777.4 | 797.8
293.15 K, 60000 kPa | 725.4 | 730.2 | 736.7 | 744.2 | 753.6 | 765 | 780.2 | 800.6
293.15 K, 65000 kPa | 728 | 732.9 | 739.4 | 746.9 | 756.3 | 767.8 | 782.9 | 803.4
303.15 K, 100 kPa | 675.1 | 679.8 | 685.3 | 692.7 | 701.9 | 713.4 | 728.9 | 749.9
303.15 K, 5000 kPa | 680 | 684.8 | 690.2 | 697.6 | 706.9 | 718.3 | 733.7 | 754.6
303.15 K, 10000 kPa | 684.4 | 689.3 | 694.8 | 702.1 | 711.4 | 722.8 | 738.2 | 759
303.15 K, 15000 kPa | 688.9 | 693.8 | 699.3 | 706.8 | 715.9 | 727.4 | 742.7 | 763.3
303.15 K, 20000 kPa | 692.8 | 697.8 | 703.4 | 710.7 | 720 | 731.4 | 746.7 | 767.3
303.15 K, 25000 kPa | 696.8 | 701.7 | 707.3 | 714.7 | 723.9 | 735.4 | 750.6 | 771.1
303.15 K, 30000 kPa | 700.3 | 705.3 | 710.9 | 718.3 | 727.5 | 739 | 754.2 | 774.7
303.15 K, 35000 kPa | 703.7 | 708.9 | 714.4 | 721.8 | 731.1 | 742.6 | 757.7 | 778.2
303.15 K, 40000 kPa | 707.1 | 712.3 | 717.9 | 725.3 | 734.5 | 746 | 761.2 | 781.5
303.15 K, 45000 kPa | 710.2 | 715.4 | 721.1 | 728.5 | 737.7 | 749.2 | 764.4 | 784.8
303.15 K, 50000 kPa | 713.4 | 718.5 | 724.2 | 731.6 | 740.8 | 752.2 | 767.5 | 787.9
303.15 K, 55000 kPa | 716.4 | 721.4 | 727.3 | 734.7 | 743.9 | 755.3 | 770.6 | 791
303.15 K, 60000 kPa | 719.2 | 724.4 | 730.2 | 737.5 | 746.9 | 758.3 | 773.5 | 793.9
303.15 K, 65000 kPa | 722 | 727.2 | 733 | 740.4 | 749.7 | 761.1 | 776.4 | 796.7
313.15 K, 100 kPa | 666.4 | 670.7 | 676 | 683.3 | 692.6 | 704.2 | 719.8 | 740.8
313.15 K, 5000 kPa | 671.6 | 676.1 | 681.4 | 688.7 | 697.9 | 709.5 | 724.9 | 745.8
313.15 K, 10000 kPa | 676.5 | 681.1 | 686.4 | 693.6 | 702.9 | 714.3 | 729.8 | 750.5
313.15 K, 15000 kPa | 681 | 685.6 | 690.9 | 698.2 | 707.5 | 718.9 | 734.3 | 755
313.15 K, 20000 kPa | 685.3 | 689.9 | 695.3 | 702.6 | 711.9 | 723.3 | 738.5 | 759.1
313.15 K, 25000 kPa | 689.4 | 694 | 699.4 | 706.7 | 716 | 727.4 | 742.6 | 763.1
313.15 K, 30000 kPa | 693.3 | 697.9 | 703.4 | 710.5 | 719.9 | 731.3 | 746.5 | 766.9
